This is an account of results in paper PMC7570888 (Molecules, 2020).

Marks after values point to notes of the source that are not given here.

The target of one assay is MT2. To be noted: cited from earlier work.
For the next assay, the target named is MT1. The conditions noted are these: cited from earlier work.
For assay [1], the target named is T1, human MT1 receptor (Homo sapiens, UniProt P48039).
T1 construct: expressed in transfected cells; host or cells: NIH3T3 fibroblast cells, stably transfected; membranes used
As to the kind of experiment: 2-[125I]iodomelatonin competition binding, human MT1 in NIH3T3 cell membranes. The conditions noted are these: 2-[125I]iodomelatonin 100 pM, 90 min 37 °C; Cheng-Prusoff; mean of at least three determinations in duplicate; read-out: hMT1 pKi (±SD) (converted). How it is done: (§1) The newly synthesized alpha- and beta-methyl N-anilinoethylamides were evaluated for their binding affinity at human MT1 and MT2 receptors stably transfected in NIH3T3 cells using 2-[^125I]iodomelatonin as radiolabelled ligand.
(§2) Binding affinities were determined using 2- [^125I]iodomelatonin as the labeled ligand in competition experiments on cloned human MT1 and MT2 receptors expressed in NIH3T3 […] fibroblast cells. The characterization of NIH3T3-MT1 and -MT2 cells had been already described in detail. Membranes were incubated for 90 min at 37 °C in binding buffer (Tris-HCl, 50 mM, pH 7.4). The final membrane concentration was 5−10 μg of protein per tube. The membrane protein level was determined in accordance with a previously reported method. […] The pKi values were calculated from the IC50 values in accordance with the Cheng−Prusoff equation [21]. The pKi values are the mean of at least three independent determinations performed in duplicate.

Assay [2] addresses T2, human MT2 receptor (Homo sapiens, UniProt P49286).
T2 construct: expressed in transfected cells; host or cells: NIH3T3 fibroblast cells, stably transfected; membranes used
T2 sequence (P49286 1-362): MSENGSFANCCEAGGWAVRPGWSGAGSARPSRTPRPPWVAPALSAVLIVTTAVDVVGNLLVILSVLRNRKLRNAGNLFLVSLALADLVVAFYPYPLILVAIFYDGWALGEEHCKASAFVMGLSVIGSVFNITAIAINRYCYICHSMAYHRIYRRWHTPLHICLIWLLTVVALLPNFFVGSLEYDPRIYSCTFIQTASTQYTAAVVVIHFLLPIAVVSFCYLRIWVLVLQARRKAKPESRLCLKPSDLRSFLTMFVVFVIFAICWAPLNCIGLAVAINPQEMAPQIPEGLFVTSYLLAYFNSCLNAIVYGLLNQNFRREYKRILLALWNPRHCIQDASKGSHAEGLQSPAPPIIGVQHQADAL
Kind of assay: 2-[125I]iodomelatonin competition binding, human MT2 in NIH3T3 cell membranes. To be noted: 2-[125I]iodomelatonin 100 pM, 90 min 37 °C; Cheng-Prusoff; mean of at least three determinations in duplicate; read-out: hMT2 pKi (±SD) (converted). How it is done:
as §1, §2

The target in assay [3] is T1, human MT1 receptor. The conditions noted are these: relative to melatonin; cited from earlier work.
Assay [4] deals with T2, human MT2 receptor. To be noted: relative to melatonin; cited from earlier work.

T1 sequence (P48039 whole entry): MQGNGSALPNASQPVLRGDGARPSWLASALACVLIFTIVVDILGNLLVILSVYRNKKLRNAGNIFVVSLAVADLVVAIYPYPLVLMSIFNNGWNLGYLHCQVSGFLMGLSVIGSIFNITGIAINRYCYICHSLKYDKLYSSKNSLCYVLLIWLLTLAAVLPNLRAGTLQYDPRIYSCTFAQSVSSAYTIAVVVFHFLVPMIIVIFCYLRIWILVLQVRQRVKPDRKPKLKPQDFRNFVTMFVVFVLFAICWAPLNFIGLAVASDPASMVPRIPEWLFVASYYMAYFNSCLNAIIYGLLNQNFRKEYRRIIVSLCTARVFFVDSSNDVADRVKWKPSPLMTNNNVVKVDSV

In the case of `COc1cc2c([C@@H](C)CNC(C)=O)c[nH]c2cc1Cl` [TIK-301, (R)-β-methyl-6-chloro-melatonin], the Ki at MT2 was 0.042 nM; at MT1, 0.081 nM.
Turning to `COc1cccc(N(C)CCNC(C)=O)c1` [compound 3, N-{2-[(3-methoxyphenyl)methylamino]ethyl}acetamide], the Ki at human MT1 receptor [1] was 1.74 nM; on human MT2 receptor [2] it was 2.24 nM. For the same molecule, the “hMT1 IA, relative intrinsic activity” value at human MT1 receptor [3] is on record as 0.95 ^c. Also, the “hMT2 IA, relative intrinsic activity” value on human MT2 receptor [4] is 1.06 ^c.
Consider `CCC(=O)NC[C@H](CO)c1cccc2ccc(OC)cc12` [compound 1, (R)-N-[3-hydroxy-2-(7-methoxynaphthalen-1-yl)propyl]propanamide], for which the “pKi(MT2)” value at MT2 is recorded as 9.50. For the same molecule, the “pKi(MT1)” value on MT1 is given as 8.47.
On to `COc1cccc(O[C@@H](C)CNC(C)=O)c1` [compound 2, (S)-N-[2-(3-methoxyphenoxy)propyl]acetamide], for which the “pKi(MT2)” value at MT2 was 8.33. In addition, the “pKi(MT1)” value on MT1 is 8.77.
